Reference: patent US5721246A, “Heterobicyclic sulfonamide and sulfonic ester derivatives” (Eisai Co., Ltd., priority 1993, dated 1998)
Values after ≈ are worked out from the molar mass of the structure shown. Read-outs that look alike come from different tables or passages of the source.

What was measured:
[1] = system: colon 38 cells; assay: In vitro antitumor test against colon 38 cells (MTT); assay type: cell-based; conditions: 72 h, concentration at which 50% of mouse colon 38 cells are inhibited, 3 days
Procedure: In vitro Antitumor Test Against Colon 38 Cells (Mouse Colon Cancer Cells)
2.5×10^3 (0.1 ml) of colon 38 cells suspended in RPMI1640 medium (a product of Sanko Junyaku) containing 10% of fetal bovine serum, penicillin (100 units/ml), streptomycin (100 μg/ml), mercaptoethanol (5×10^-5 M) and sodium pyruvate (1 mM) were inoculated in each well of a 96-well flat-bottomed microplate, and cultured in an incubator containing 5% of carbon dioxide at 37° C. for one day.
A test compound according to the present invention was dissolved in dimethyl sulfoxide in a concentration of 20 mg/ml and the resulting solution was diluted with 10% fetal bovine serum/RPMI1640 medium to a concentration of 200 μg/ml. The resulting solution was diluted with 10% fetal bovine serum/RPMI1640 medium to prepare 3-fold serial dilutions with the maximum concentration being 200 μg/ml. The obtained dilutions were each poured into the well of the above-described culture plate in an amount of 0.1 ml. The resulting plate was cultured at 37° C. in an incubator containing 5% of carbon dioxide for 3 days.
Thereafter, a solution of MTT[3-(4,5-dimethylthiazol-2-yl)-2,5-diphenyltetrazolium bromide] (having a concentration of 3.3 mg/ml) was added to each well in an amount of 0.05 ml. The resulting mixtures were further incubated for 2 hours. The supernatant was removed from each well by suction. Formed formazan was dissolved in 0.1 ml of dimethyl sulfoxide. The absorbance at 540 nm was determined with a microplate reader and the absorbance was taken as an index of the number of viable cells. The inhibitory ratio of the test compound was calculated according to the following formula to determine the IC50 of the test compound, with the IC50 referring to the concentration at which 50% of mouse colon 38 cells are inhibited: [formula] T: absorbance of well containing a test compound C: absorbance of well containing no test compound

[2] = system: colon 38; assay type: in vivo, mouse; conditions: once a day for 8 days, BDF1 mice, tumor weight on 21st day
Procedure: In vivo Antitumor Test Against Colon 38 (Mouse Colon Cancer)
About 75 mg of colon 38 was subcutaneously transplanted to the flank of each BDF1 mouse (aged 7 weeks, female). A test compound according to the present invention was suspended in a physiological saline containing 3.5% of dimethyl sulfoxide and 6.5% of Tween 80 and the obtained suspension was intraperitoneally administered to the mice in a predetermined dose once a day for 8 days from the next day of transplantation. On the other hand, only a physiological saline containing 3.5% of dimethyl sulfoxide and 6.5% of Tween 80 was intraperitoneally administered to the mice of the control group. The control group was composed of ten mice, while each treated group was composed of six mice.
On the 21st day after the transplantation, the tumor was extirpated from each mouse to determine its weight. The tumor growth inhibition ratio was determined by the following formula: [formula] T: average weight of tumor of the treated group C: average weight of tumor of the control group

[3] = system: HCT116; assay: animal or person; conditions: Mus musculus, HCT-116, ip, 504 h, once a day for 4 days, nude mice, tumor weight on 21st day, read-out: Growth inhibition ratio
Excerpt: In vivo Antitumor Test Against HCT116 (Human Colon Cancer)
HCT116 (5 to 8×10^6) was subcutaneously transplanted to the flank of each nude mouse (BALB/c·nu/nu, aged 7 to 8 weeks, female). A test compound according to the present invention was suspended in a physiological saline containing 3.5% of dimethyl sulfoxide and 6.5% of Tween 80 and the obtained suspension was intraperitoneally administered to the mice treated above once a day in a predetermined dose for 4 days after the time at which the tumor volume had increased to about 100 mm^3, which was about 7 days after the transplantation. On the other hand, only a physiological saline containing 3.5% of dimethyl sulfoxide and 6.5% of Tween 80 was intraperitoneally administered to the mice of the control group. The control group was composed of ten mice, while each treated group was composed of five mice. On the 21st day after the initiation of administration, the tumor was extirpated from each mouse to determine its weight. The tumor growth inhibition ratio was determined by the following formula: [formula] T: average weight of tumor of the treated group C: average weight of tumor of the control group

For `Nc1ccc(S(=O)(=O)Nc2cnc3c(Cl)cccc3n2)cc1` [CQS, 2-sulfanylamido-5-chloroquinoxaline, reference compound], which IC50 [1] is on record?
Its IC50 is 2 µg/mL (≈ 5.97 µM).

And the Growth inhibition ratio ([2]; 200 mg/kg/day i.p.)?
Its Growth inhibition ratio is 53%.

And the inhibition in vivo at 200 mg/kg ([3]; 200 mg/kg/day i.p.)?
Its inhibition in vivo at 200 mg/kg is 33%.

`Nc1ccc(S(=O)(=O)Nc2cccc3c(Cl)c[nH]c23)cc1` [Example 3] was tested. Which IC50 [1] did it give?
Its IC50 is 0.23 µg/mL (≈ 0.715 µM).

And the Growth inhibition ratio ([2]; 50 mg/kg/day i.p.)?
Its Growth inhibition ratio is 94%.

What does the source list for `N#Cc1ccc(S(=O)(=O)Nc2cccc3c(Cl)c[nH]c23)cc1` [Example 10]?
IC50 [1]: 0.13 µg/mL (≈ 0.392 µM); Growth inhibition ratio ([2]; 50 mg/kg/day i.p.): 94%

Which results are given for `N#Cc1c[nH]c2c(NS(=O)(=O)c3cccc(Cl)c3)cccc12` [Example 17]?
IC50 [1]: 0.13 µg/mL (≈ 0.392 µM); Growth inhibition ratio ([2]; 50 mg/kg/day i.p.): 94%

Which results are given for `NC(=O)c1ccc(S(=O)(=O)Nc2cccc3c(Cl)c[nH]c23)cc1` [Example 29]?
IC50 [1]: 0.19 µg/mL (≈ 0.543 µM); Growth inhibition ratio ([2]; 50 mg/kg/day i.p.): 97%; inhibition in vivo at 100 mg/kg ([3]; 100 mg/kg/day i.p.): 80%

Which IC50 [1] does the source give for `CC(=O)c1ccc(S(=O)(=O)Nc2cccc3c(C#N)c[nH]c23)cc1` [Example 42] here?
Its IC50 is 0.25 µg/mL (≈ 0.737 µM).

What about the Growth inhibition ratio ([2]; 50 mg/kg/day i.p.) of the same molecule?
The Growth inhibition ratio was 98%.
